Values of other authors as cited in patent US20250160636A1, “Mitigating Ocular Toxicity” (GlaxoSmithKline Intellectual Property Development Limited, priority 2022, published 2025).
Like-named read-outs stand apart in the source and are kept apart here.

Details: for Vision disorder: n = 255, photopsia

For CC(=O)Nc1cccc(-n2c(=O)n(C3CC3)c(=O)c3c(Nc4ccc(I)cc4F)n(C)c(=O)c(C)c32)c1 [Trametinib], the “Incidence of Retinal Veinous Occlusion” value (4/1,749) is listed as “halo. Incidence of Retinal Veinous Occlusion was 0.2% (4/1,749)”, the “Incidence of Retinal Pigment Epithelial Detachment” value (14/1,749) is listed as “Incidence of Retinal Pigment Epithelial Detachment was 0.8% (14/1,749)” and the “Mentions (ocular toxicity issues)” value (full list, wrapped over lines: blurry vision, dry eye, transient blindness, eye floaters, and visual halo) is listed as “Mentions blurry vision, dry eye, transient blindness, eye floaters, and visual”.
For CN(C)C/C=C/C(=O)Nc1cc2c(Nc3ccc(F)c(Cl)c3)ncnc2cc1O[C@H]1CCOC1 [Afatinib], the Conjunctivitis (n = 229) is listed as 11%, the Keratitis (n = 3865 patients) is listed as 0.8% and the “grade III event” value (number of events, n = 3865 patients) is listed as 1.
In the case of Rituximab, the “Mentions (ocular toxicity issues)” value (in vivo) is listed as “Mentions uveitis and optic neuritis”.
For Pertuzumab, the “Mentions (ocular toxicity issues)” value (in vivo) is given as “Mentions increased lacrimation”.
In the case of Cc1cc(Nc2ncc(Cl)c(Nc3ccccc3S(=O)(=O)C(C)C)n2)c(OC(C)C)cc1C1CCNCC1 [Ceritinib], the Vision disorder (comprised of vision impairment, blurred vision, accommodation disorder, presbyopia, or reduced visual acuity) is listed as “Vision disorder 9% (comprised of vision impairment, blurred vision, photopsia,”.
For C[C@@H](Oc1cc(-c2cnn(C3CCNCC3)c2)cnc1N)c1c(Cl)ccc(F)c1Cl [Crizotinib], the Vision disorder (includes diplopia, photophobia, vision blurred, visual field defect, visual impairment, vitreous floaters, visual brightness, and visual acuity reduced) is given as “Vision disorder 64% (Includes diplopia, photopsia, photophobia, vision blurred,”.
For Panitimumab, the Conjunctivitis (in 463 patients) is listed as 4%, the Eye/eyelid irritation (in 463 patients) is listed as 1% and the increased lacrimation (in 463 patients) is listed as “increased lacrimation (2%), in 463 patients”. The ocular hyperemia (in 463 patients) was 3%.
For CC(C)C[C@H](NC(=O)[C@H](Cc1ccccc1)NC(=O)c1cnccn1)B(O)O [Bortezomib], the “Case reports associated with” value (case reports) is listed as “Case reports associated with eyelid chalazia” and the “Label mentions (ocular toxicity issues)” value (label) is listed as “Label mentions diplopia, blurred vision, conjunctival infection, irritation”.
In the case of C#Cc1cccc(Nc2ncnc3cc(OCCOC)c(OCCOC)cc23)c1 [Erlotinib], the “Reported Conjunctivitis” value (n = 84) is listed as 18%, the Conjunctivitis (n = 485) is listed as 12% and the “Keratoconjunctivitis Sicca” value (n = 485) is listed as “n = 485 and Keratoconjunctivitis Sicca 12% n = 485. Mentions of corneal”. The “Conjunctivitis Grade III” value (number of events, n = 485) was 1, the “pooled incidence of ocular disorders” value (one pancreatic cancer study) was 12.8% and the “pooled incidence of ocular disorders” value (three lung cancer studies) was 17.8%.
In the case of Cc1cn(-c2cc(NC(=O)c3ccc(C)c(Nc4nccc(-c5cccnc5)n4)c3)cc(C(F)(F)F)c2)cn1 [Nilotinib], the “Frequency class of vision impairment, vision blurred, visual acuity reduced, photopsia, eye irritation” value (in vivo) is listed as “Uncommon: vision impairment, vision blurred, visual acuity reduced, photopsia,”.
For COc1cc2c(Nc3ccc(Br)cc3F)ncnc2cc1OCC1CCN(C)CC1 [Vandetanib], the “Blurry vision (corneal opacities)” value (No cohort information) is listed as “Blurry vision (corneal opacities) 9%. No cohort information”.
In the case of CCCS(=O)(=O)Nc1ccc(F)c(C(=O)c2c[nH]c3ncc(-c4ccc(Cl)cc4)cc23)c1F [Vemurafenib], the “Mentions (ocular toxicity issues)” value (in vivo) is listed as “Mentions retinal vein occlusion, uveitis, blurry vision, iritis, and photophobia”.
In the case of CC(C)(C)c1nc(-c2cccc(NS(=O)(=O)c3c(F)cccc3F)c2F)c(-c2ccnc(N)n2)s1 [Dabrafenib], the “Can cause (ocular toxicity issue)” value (in vivo) is listed as “cystoid macula edema” and the Uveitis/Iritis (n = 586) is listed as 1%.
For COc1cc2ncnc(Nc3ccc(F)c(Cl)c3)c2cc1OCCCN1CCOCC1 [Gefitinib], the “Mentions of (ocular toxicity issues)” value (full list, wrapped over lines: eye irritation, eye pain, corneal erosion/ulcer, aberrant eyelash growth, corneal membrane sloughing, and ocular ischemia/hemorrhage) is listed as “Mentions of eye irritation, eye pain, corneal erosion/ulcer, aberrant eyelash”.
In the case of Cc1nc(Nc2ncc(C(=O)Nc3c(C)cccc3Cl)s2)cc(N2CCN(CCO)CC2)n1 [Dasatinib], the Conjunctivitis (cohort not given) is listed as 0.1-1% and the “Visual disorder (visual disturbance, vision blurred, decreased visual acuity) or dry eye” value (in vivo) is listed as 1-10%.
